From ChEMBL document CHEMBL6177943, “Recent advances in small molecule design strategies against hepatic fibrosis” (Eur J Med Chem, 2025)

Assays:
LX-2 = test: Anti-fibrotic activity in human LX-2 cells assessed as inhibition of alpha-SMA mRNA expression; assay type: functional; parameters: scale not given: the % may be the effect or the level left
[1] = target: Collagen alpha-1(I) chain (Homo sapiens) (UniProt P02452); test: Inhibition of COL1A1 (unknown origin) transfected in human LX-2 cells at 40 uM incubated for 24 hrs by Bright-Glo luciferase assay relative to control; assay type: cell-based
Collagen alpha-1(I) chain (Homo sapiens), sequence (P02452 whole entry): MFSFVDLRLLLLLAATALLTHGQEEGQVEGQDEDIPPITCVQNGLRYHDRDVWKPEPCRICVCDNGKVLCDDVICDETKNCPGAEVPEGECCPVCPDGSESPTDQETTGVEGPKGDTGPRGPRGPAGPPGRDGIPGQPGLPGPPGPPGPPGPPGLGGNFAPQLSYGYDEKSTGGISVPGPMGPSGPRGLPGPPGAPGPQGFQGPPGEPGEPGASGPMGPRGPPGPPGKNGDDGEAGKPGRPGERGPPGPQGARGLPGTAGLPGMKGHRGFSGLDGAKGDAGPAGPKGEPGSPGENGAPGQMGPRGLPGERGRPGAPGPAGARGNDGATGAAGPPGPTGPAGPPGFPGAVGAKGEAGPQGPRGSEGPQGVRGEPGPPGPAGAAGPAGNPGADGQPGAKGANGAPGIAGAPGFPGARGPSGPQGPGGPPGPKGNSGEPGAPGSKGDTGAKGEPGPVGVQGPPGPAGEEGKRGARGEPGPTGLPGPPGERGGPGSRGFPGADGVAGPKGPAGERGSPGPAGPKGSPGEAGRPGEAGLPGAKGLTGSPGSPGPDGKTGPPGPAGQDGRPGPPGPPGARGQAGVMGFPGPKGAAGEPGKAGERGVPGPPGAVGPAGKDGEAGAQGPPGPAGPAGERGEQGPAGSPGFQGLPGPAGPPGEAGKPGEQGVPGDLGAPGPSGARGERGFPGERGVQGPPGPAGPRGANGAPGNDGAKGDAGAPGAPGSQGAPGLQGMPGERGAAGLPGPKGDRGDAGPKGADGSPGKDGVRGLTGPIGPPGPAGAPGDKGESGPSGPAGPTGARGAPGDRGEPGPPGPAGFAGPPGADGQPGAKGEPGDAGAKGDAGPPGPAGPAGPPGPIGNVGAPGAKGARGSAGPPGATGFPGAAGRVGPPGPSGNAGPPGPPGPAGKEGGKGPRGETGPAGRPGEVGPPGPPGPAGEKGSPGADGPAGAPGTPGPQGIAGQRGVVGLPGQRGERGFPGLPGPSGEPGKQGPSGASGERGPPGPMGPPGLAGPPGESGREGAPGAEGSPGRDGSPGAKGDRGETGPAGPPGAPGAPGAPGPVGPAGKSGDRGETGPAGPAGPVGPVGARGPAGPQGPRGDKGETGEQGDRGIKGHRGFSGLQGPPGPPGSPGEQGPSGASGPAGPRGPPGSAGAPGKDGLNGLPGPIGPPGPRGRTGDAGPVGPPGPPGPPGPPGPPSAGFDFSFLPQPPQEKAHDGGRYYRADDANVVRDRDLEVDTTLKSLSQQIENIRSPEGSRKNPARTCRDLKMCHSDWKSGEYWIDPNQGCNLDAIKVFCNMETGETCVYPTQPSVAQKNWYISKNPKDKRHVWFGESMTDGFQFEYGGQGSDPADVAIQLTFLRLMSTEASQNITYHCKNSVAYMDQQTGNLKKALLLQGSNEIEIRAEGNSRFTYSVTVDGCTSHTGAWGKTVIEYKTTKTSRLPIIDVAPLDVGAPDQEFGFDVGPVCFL

[2] = Anti-hepatic activity in rat HSC-T6 cells assessed as inhibition of LPS-induced cell proliferation at 10 uM incubated for 24 hrs by MTS assay relative to control; assay type: functional
[3] = Cmax in Sprague-Dawley rat at 25 mg/kg, po measured after 8 hrs; assay type: ADME, organism-based; settings: in vivo

CCCCCCCCN(C)C(=O)c1cc(O)c(O)c(O)c1
Activity (LX-2): 47.7%

O=c1cccc2n1C[C@@H]1CNC[C@H]2C1
inhibition [1]: 90%

C1=C2CCCN[C@H]2[C@@H]2C[C@H]1[C@H]1CCCCN1C2
inhibition [1]: 4.7%

COC(=O)c1cc2cc(OC)c(OC)cc2c2cc(C)ccc12
inhibition at 10 µM [2]: 34.2%

O=c1cccc2n1CC1CC2CN(Cc2cc(Cl)ccc2Cl)C1 (stereo not given)
Cmax [3]: 960 nM
